Data: patent publication US20230339968A1, “KRAS Gl2C INHIBITORS” (Eli Lilly and Company, priority 2019, published 2023)

Experiments:
pERK = assay: In vivo pharmacodynamic effect, pERK Meso Scale Discovery ELISA of tumor lysates, pancreatic cancer MiaPaca-2 xenograft model; conditions: Mus musculus, MIA PaCa-2, MiaPaca-2 model; for inhibition at 5 mg/kg: single dose 5 mg/kg; for inhibition at 10 mg/kg: single dose 10 mg/kg; for inhibition at 30 mg/kg: single dose 30 mg/kg
Protocol: The purpose of these assays is to evaluate in vivo target inhibition of an orally administered test compound. Human lung cancer H358 cells, or pancreatic cancer MiaPaca-2 cells, are implanted into nude mice xenograft tumor models. H358 or MiaPaca-2 cells (10×106 in a 1:1 Matrigel® mix, 0.2 mL total volume) are implanted by subcutaneous injection in hind leg of nude female mice (Harlan Laboratories). A total of 3-4 mice in each group are used for target engagement and PD study. Treatment is initiated with oral administration (gavage) of a test compound or vehicle (20% Captisol®, 25 mM phosphate, pH 2.0 in 0.2 mL) when the tumor size reaches approximately 300 mg.
For in vivo target inhibition and PD analysis, tumors are ground by mortar and pestle on dry ice and tumor fragments are added to 800 μL of lysis buffer containing 1% Triton™ X-100, 25 mM Tris pH7.5, 150 mM sodium chloride, 1 mM EDTA, and 1 mM EGTA with Halt protease and phosphatase inhibitor cocktail (Thermo Scientific, cat. no. 1861281) in lysing matrix D tubes (MP Biomedical®, cat. no. 6913-500) with one additional large bead (MP Biomedical® ¼″ ceramic sphere bead cat. no. 6540-412) per tube. Tumor fragments are homogenized in a Thermo Bio101® fast prep (FP120) at setting 4 for […] while cold for a total of 2 times. Lysates are spun at 14,000 rpm for 10 minutes at 4° C. to clarify. Protein estimation is done on the lysate supernatant using a BioRad Dc® protein assay and lysates are diluted in complete lysis/binding buffer from the Ras GTPase Chemi ELISA Kit® (Active Motif, cat. no. 52097). The active KRas ELISA is performed as follows: glutathione-coated ELISA wells are incubated with diluted RAF1-GST in complete lysis/binding buffer for 1 hour at 4° C. with gentle agitation. Wells are washed 3 times with wash buffer and 100 μg of lysates are added to each well and incubated at ambient temperature for 1 hour with mild agitation. The wells are washed an additional 3 times, then primary antibody, diluted in antibody binding buffer, is added to each well. The plates are incubated for 1 hour. The wells are washed 3 more times before adding HRP-conjugated secondary antibody, diluted in antibody binding buffer, to each well. The plates are incubated at ambient temperature for 1 hour. ELISA wells are washed 4 times, chemiluminescent reagent is added and then luminescence is read. For pERK Meso Scale Discovery ELISA, 25 μg of protein containing 0.1% SDS is used; Meso Scale Discovery Whole Cell Lysate Kit for pERK is provided by Meso Scale Discovery.
The purpose of this assay is to evaluate the does and time dependent in vivo target inhibition and pharmacodynamic effects in a pancreatic cancer model. The compound of Examples 35 is dosed at 5, 10 or 30 mg/kg in a time course experiment. After a single dose, the tumor samples are harvested at 2, 4, 8, 12 and 24 hours post doing. The tumor lysates are prepared and the inhibition of pERK and active KRas is measured as described above.

[1] = tested on: UM-UC-3 (bladder) xenograft; assay: Anti-tumor growth activity, UM-UC-3 xenograft model; format: in vivo, mouse
Protocol: For xenograft models of H1373, HCC44, MiaPaca-2, SW1463, KYSE-410 and UM-UC-3, typically 5-10×10^6 cells in a 1:1 matrigel mix (0.2 mL total volume) are implanted by subcutaneous injection in hind leg of nude mice. Generally, a total of 4 mice each group are used for efficacy study. Treatment is initiated with oral administration (gavage) of testing compound or vehicle (20% captisol, 25 mM phosphate, pH2.0) in 0.2 mL volume when tumor size reaches approximately 200-300 mg. Tumor growth and body weight are monitored over time to evaluate efficacy and signs of toxicity. For EL3187 PDX model, frozen vials containing tumor fragments are thawed at 37° C. in a water bath. The tumor fragments are transferred to 50 mL Falcon tube and the ice cold DMEM medium is slowly added into the tube to a total volume of 35 mL. Then the tumor fragments are centrifuged at 130×g for 2 minutes at 4° C. and supernatant is aspirated. This washing step is repeated twice and the tumor fragments are resuspended in 10 mL DMEM for implantation into athymic nude-Foxn1nu mice (Envigo RMS, Inc., Mount Comfort, Indiana). Once tumor volumes reach 800 to 1000 mm^3, animals are sacrificed and tumors are harvested using aseptic technique. Fresh tumors are cut into 10 to 15 mm^3 fragments and placed into cold Gibco hibernate medium. The tumor fragments are subcutaneously implanted into animals with a 10 g trochar needle. When tumor size reaches 200 to 300 mm^3, the animals are randomized for compound treatment.
Among models listed in Table 31, EL3187 is a patient-derived xenograft (PDX) model, and all other are tumor xenograft models.

[2] = tested on: MiaPaca-2 (pancreatic) xenograft; assay: In vivo combination efficacy with other targeted therapies, MiaPaca-2 xenograft model; parameters: species or system mouse; conditions: MiaPaca-2 (Pancr); 10 mg/kg QD × 28
Description: (§1) A total of six in vivo xenograft or PDX models—four lung models (H358, H1373, LU99, and EL3187 PDX), one colorectal model (SW1463) and one pancreatic model (MiaPaca-2)—are utilized.

H358 (lung) xenograft = assay: In vivo combination efficacy with other targeted therapies, H358 xenograft model; parameters: species or system mouse; conditions: 10 mg/kg QD × 28
Description: as §1

SW837 (CRC) xenograft = assay: Anti-tumor growth activity, SW837 xenograft model; format: in vivo, mouse

`C=CC(=O)N1CCN2C(=O)c3cc(F)c(-c4ccc(F)c5sc(N)c(C#N)c45)c(Cl)c3OCC[C@H]2C1` [Example 35, 4-[(13aS)-10-Chloro-8-fluoro-6-oxo-2-prop-2-enoyl-1,3,4,12,13,13a-hexahydropyrazino[2,1-d][1,5]benzoxazocin-9-yl]-2-amino-7-fluoro-benzothiophene-3-carbonitrile] was tested, and the inhibition at 5 mg/kg (pERK; 2 hours) was 51%, the inhibition at 5 mg/kg (pERK; 4 hours) was 50.9% and the inhibition at 5 mg/kg (pERK; 8 hours) was 59%. For the same compound, the inhibition at 5 mg/kg (pERK; 12 hours) was 47.4%, the inhibition at 5 mg/kg (pERK; 24 hours) was -30.2% and the inhibition at 10 mg/kg (pERK; 2 hours) was 68.5%. It also gave an inhibition at 10 mg/kg (pERK; 4 hours) of 58.5%, an inhibition at 10 mg/kg (pERK; 8 hours) of 57.6% and an inhibition at 10 mg/kg (pERK; 12 hours) of 49%. For the same compound, the inhibition at 10 mg/kg (pERK; 24 hours) was -14.9%, the inhibition at 30 mg/kg (pERK; 2 hours) was 59.5% and the inhibition at 30 mg/kg (pERK; 4 hours) was 58.7%. It also gave an inhibition at 30 mg/kg (pERK; 8 hours) of 54.3%, an inhibition at 30 mg/kg (pERK; 12 hours) of 58.4% and an inhibition at 30 mg/kg (pERK; 24 hours) of 15.6%. For the same compound, the “tumor growth inhibition (%) or regression (−%)” value ([1]; 5 mg/kg BID × 28, oral) was 45.3%, the “tumor growth inhibition (%) or regression (−%)” value ([1]; 5 mg/kg QD × 28, oral) was 34.3% and the “tumor growth inhibition (%) or regression (−%)” value ([1]; 10 mg/kg BID × 28, oral) was 75%. For the same compound, the “tumor growth inhibition (%) or regression (−%)” value ([1]; 10 mg/kg QD × 28, oral) was 33.6%, the “tumor growth inhibition (%) or regression (−%)” value ([1]; 30 mg/kg BID × 28, oral) was 85% and the “tumor growth inhibition (%) or regression (−%)” value ([1]; 30 mg/kg QD × 28, oral) was 83.1%. The “Tumor Growth Inhibition (%) and Regression (−%)” value [2] was −27%, the “Tumor Growth Inhibition (%) and Regression (−%)” value (H358 (lung) xenograft; first data column) was 74.9% and the “Tumor Growth Inhibition (%) and Regression (−%)” value (H358 (lung) xenograft; second data column) was 46.6%. For the same compound, the “tumor growth inhibition (%) or regression (−%)” value (SW837 (CRC) xenograft; 5 mg/kg BID × 28, oral) was 83.6%, the “tumor growth inhibition (%) or regression (−%)” value (SW837 (CRC) xenograft; 5 mg/kg QD × 28, oral) was 18.2% and the “tumor growth inhibition (%) or regression (−%)” value (SW837 (CRC) xenograft; 10 mg/kg BID × 28, oral) was 62.1%. For the same compound, the “tumor growth inhibition (%) or regression (−%)” value (SW837 (CRC) xenograft; 10 mg/kg QD × 28, oral) was 95.2%, the “tumor growth inhibition (%) or regression (−%)” value (SW837 (CRC) xenograft; 30 mg/kg BID × 28, oral) was −23.8% and the “tumor growth inhibition (%) or regression (−%)” value (SW837 (CRC) xenograft; 30 mg/kg QD × 28, oral) was 83.5%.
